# Counter-ions that a name gives are not always drawn.
# Target: T1, purified human HDAC6 (Homo sapiens, UniProt Q9UBN7)
# T1 construct: purchased BPS Bioscience 5006
# T1 sequence (Q9UBN7 1-1215): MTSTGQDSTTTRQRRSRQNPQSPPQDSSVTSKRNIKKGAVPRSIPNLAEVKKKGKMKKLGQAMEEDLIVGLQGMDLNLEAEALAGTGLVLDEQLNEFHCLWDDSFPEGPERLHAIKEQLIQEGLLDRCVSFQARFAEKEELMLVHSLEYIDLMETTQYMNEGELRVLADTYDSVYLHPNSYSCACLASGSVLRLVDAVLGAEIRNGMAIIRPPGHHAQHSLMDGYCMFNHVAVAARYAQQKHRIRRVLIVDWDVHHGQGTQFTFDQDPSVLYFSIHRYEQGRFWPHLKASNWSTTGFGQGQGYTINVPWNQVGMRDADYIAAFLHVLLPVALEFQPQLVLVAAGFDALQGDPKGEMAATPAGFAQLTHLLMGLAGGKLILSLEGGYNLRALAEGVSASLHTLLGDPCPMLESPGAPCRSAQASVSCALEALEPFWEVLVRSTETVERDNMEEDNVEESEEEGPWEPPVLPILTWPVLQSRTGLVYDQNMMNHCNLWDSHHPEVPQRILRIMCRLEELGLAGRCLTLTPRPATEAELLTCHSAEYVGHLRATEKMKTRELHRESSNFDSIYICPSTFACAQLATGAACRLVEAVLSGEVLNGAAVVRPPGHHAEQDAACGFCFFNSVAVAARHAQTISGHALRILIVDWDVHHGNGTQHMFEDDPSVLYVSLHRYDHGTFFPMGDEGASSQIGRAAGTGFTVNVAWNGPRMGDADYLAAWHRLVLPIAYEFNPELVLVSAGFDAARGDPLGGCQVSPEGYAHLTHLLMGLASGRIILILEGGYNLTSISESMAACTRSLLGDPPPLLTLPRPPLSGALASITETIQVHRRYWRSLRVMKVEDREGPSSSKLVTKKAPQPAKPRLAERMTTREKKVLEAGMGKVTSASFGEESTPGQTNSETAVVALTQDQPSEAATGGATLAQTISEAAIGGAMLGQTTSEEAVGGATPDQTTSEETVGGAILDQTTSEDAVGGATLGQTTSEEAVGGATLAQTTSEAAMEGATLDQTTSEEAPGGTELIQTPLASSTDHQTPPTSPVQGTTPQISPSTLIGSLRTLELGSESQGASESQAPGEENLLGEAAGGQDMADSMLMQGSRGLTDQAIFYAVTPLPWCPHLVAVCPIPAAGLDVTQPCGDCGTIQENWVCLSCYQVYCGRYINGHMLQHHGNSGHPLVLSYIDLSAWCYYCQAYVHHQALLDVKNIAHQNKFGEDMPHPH
# Test: HDAC6 Enzyme Assay
# Assay type: biochemical
# Conditions: HDAC6 inhibition at a compound concentration of 0.412 μM; read-out: Percent Inhibition at 0.412 μM
# Description: To measure the inhibition of HDAC6 activity, purified human HDAC6 (BPS Bioscience; Cat. No. 5006) is incubated with substrate Ac-Arg-Gly-Lys(Ac)-AMC peptide (Bachem Biosciences; Cat. No. I-1925) for 1 hour at 30° C. in the presence of test compounds or vehicle DMSO control. The reaction is stopped with the HDAC inhibitor trichostatin A (Sigma; Cat. No. T8552) and the amount of Arg-Gly-Lys-AMC generated is quantitated by digestion with trypsin (Sigma; Cat. No. T1426) and subsequent measurement of the amount of AMC released using a fluorescent plate reader (Pherastar; BMG Technologies) set at Ex 340 nm and Em 460 nm. Concentration response curves are generated by calculating the fluorescence increase in test compound-treated samples relative to DMSO-treated controls, and enzyme inhibition (IC50) values are determined from those curves.
row,inhibition at 0.412 µM,Structure (SMILES)
1,33%,"O=C(NO)c1ccc2c(c1)CCCC2NC(=O)c1cccc(C(F)(F)F)c1 (stereo not drawn) [Compound I-8, N-hydroxy-5-{[3-(trifluoromethyl)benzoyl]amino}-5,6,7,8-tetrahydronaphthalene-2-carboxamide]"
2,80%,"O=C(NO)c1ccc2c(c1)CCC(c1cccnc1)C2 (stereo not drawn) [Compound I-121, N-hydroxy-6-pyridin-3-yl-5,6,7,8-tetrahydronaphthalene-2-carboxamide]"
3,41%,"CC(C)(C)OC(=O)N1CCC(C2CCc3ccc(C(=O)NO)cc3C2)CC1 (stereo not drawn) [Compound I-221, tert-butyl 4-{7-[(hydroxyamino)carbonyl]-1,2,3,4-tetrahydronaphthalen-2-yl}piperidine-1-carboxylate]"
4,87%,"O=C(NO)c1ccc2c(c1)CCC(OCc1ccc(Cl)cc1)C2 (stereo not drawn) [Compound I-125, 6-[(4-chlorobenzyl)oxy]-N-hydroxy-5,6,7,8-tetrahydronaphthalene-2-carboxamide]"
5,93%,"Nc1cc(C2CCc3ccc(C(=O)NO)cc3C2)ncn1 (stereo not drawn) [Compound I-98, 7-(6-aminopyrimidin-4-yl)-N-hydroxy-5,6,7,8-tetrahydronaphthalene-2-carboxamide]"
6,74%,"Cc1ccc(-c2cc(C(=O)NC3CCCc4cc(C(=O)NO)ccc43)[nH]n2)cc1 (stereo not drawn) [Compound I-35, N-{6-[(hydroxyamino)carbonyl]-1,2,3,4-tetrahydronaphthalen-1-yl}-3-(4-methylphenyl)-1H-pyrazole-5-carboxamide]"
7,-2%,"O=C(NO)c1ccc2c(c1)CCCC2NC(=O)c1ccc2ncsc2c1 (stereo not drawn) [Compound I-28, N-{6-[(hydroxyamino)carbonyl]-1,2,3,4-tetrahydronaphthalen-1-yl}-1,3-benzothiazole-6-carboxamide]"
8,95%,"CCN1CCC(NC(=O)c2cc(OC3CCc4cc(C(=O)NO)ccc4C3)ccn2)CC1 (stereo not drawn) [Compound I-227, N-(1-ethylpiperidin-4-yl)-4-({6-[(hydroxyamino)carbonyl]-1,2,3,4-tetrahydronaphthalen-2-yl}oxy)pyridine-2-carboxamide]"
9,78%,"Cc1nc2ccccn2c1C(=O)NC1CCc2cc(C(=O)NO)ccc2C1 (stereo not drawn) [Compound I-55, N-{6-[(hydroxyamino)carbonyl]-1,2,3,4-tetrahydronaphthalen-2-yl}-2-methylimidazo[1,2-a]pyridine-3-carboxamide]"
10,93%,"CCN(CC)CCNC(=O)c1cc(OC2CCc3cc(C(=O)NO)ccc3C2)ccn1 (stereo not drawn) [Compound I-226, N-[2-(diethylamino)ethyl]-4-({6-[(hydroxyamino)carbonyl]-1,2,3,4-tetrahydronaphthalen-2-yl}oxy)pyridine-2-carboxamide]"
11,72%,"O=C(NO)c1ccc2c(c1)CC(C1CCNCC1)CC2 (stereo not drawn) [Compound I-212, N-hydroxy-7-piperidin-4-yl-5,6,7,8-tetrahydronaphthalene-2-carboxamide. HCl]"
12,88%,"CN(C)Cc1cc(C(=O)NC2CCc3ccc(C(=O)NO)cc3C2)cc(C(F)(F)F)c1 (stereo not drawn) [Compound I-78, 7-{[3-[(dimethylamino)methyl]-5-(trifluoromethyl)benzoyl]amino}-N-hydroxy-5,6,7,8-tetrahydronaphthalene-2-carboxamide]"
13,22%,"O=C(NO)c1ccc2c(c1)CCCC2NC(=O)C1(c2ccccc2)CCCC1 (stereo not drawn) [Compound I-46, N-hydroxy-5-{[(1-phenylcyclopentyl)carbonyl]amino}-5,6,7,8-tetrahydronaphthalene-2-carboxamide]"
14,75%,"Cn1cccc1C(=O)NC1CCc2cc(C(=O)NO)ccc2C1 (stereo not drawn) [Compound I-62, N-(6-(hydroxycarbamoyl)-1,2,3,4-tetrahydronaphthalen-2-yl)-1-methyl-1H-pyrrole-2-carboxamide]"
15,81%,"COc1ccccc1C1CCc2ccc(C(=O)NO)cc2C1 (stereo not drawn) [Compound I-116, N-hydroxy-7-(2-methoxyphenyl)-5,6,7,8-tetrahydronaphthalene-2-carboxamide]"
